Assay results published in US11203598B2, “Compounds for repressing cancer cell growth” (Institute For Cancer Research, priority 2018, dated 2021).

Key:
Format in all cases: cell-based, human
[1] = system: p53 pathway proteins in DLD-1 cells; assay: Western blot of p53 targets and LC3B; conditions: for DR5 protein level: 8 and 24 hours
Experimental: (§1) After treatment, cells were harvested by trypsinization, washed with PBS, and lysed with RIPA buffer (Sigma-Aldrich) for 30 minutes to 1 hour at 4° C. Protein lysates were spun down and supernatant was collected. Protein quantification was performed using a Pierce™ BCA Protein Assay Kit (Thermo Fisher Scientific). 1×NuPAGE® LDS sample buffer (Thermo Fisher Scientific) and 2-Mercaptoethanol as the reducing agent (Sigma-Aldrich) were added to protein lysates, followed by boiling for 15 minutes at 95° C. Equal total protein amounts samples were loaded into NuPAGE™ Novex™ 4-12% Bis-Tris Protein Gels (1.5 mm, Thermo Fisher Scientific) and gel eletrophoresis was performed with NuPAGE™ MES SDS Running Buffer. Proteins were transferred onto an Immobilon-P membrane (PVDF, EMD Millipore) using a Bio-Rad system with a 10% Tris-Glycine and 10% methanol transfer buffer diluted in distilled and deionized water. After transfer, membranes were blocked with 10% milk in TBST solution and then incubated overnight with primary antibody, washed with TBST and incubated with secondary antibody for 1 hour. Incubations were performed in 5% milk in TBST solution. Signal was detected by using a chemiluminescent detection kit, followed by autoradiography. The following antibodies were used: p53 (DO-1, 1:1000, Santa Cruz), p73 (1:1000, Bethyl Laboratories), p21 and NOXA (1:250, EMD Millipore), DR5, FADD, cleaved caspase 3, cleaved caspase 8, cleaved PARP, and LC3B (1:1000, Cell Signaling), and β-actin (1:10000, Sigma).
(§2) Proteins were isolated using NP40 Lysis Buffer (20 mmol/L Tris-HCl (pH 7.4), 150 mmol/L NaCl, 5 mmol/L EDTA, 50 mmol/L NaF, 1 mmol/L glycerophosphate, 5 mmol/L Na4P2O7, 0.5% NP40, and complete protease inhibitor cocktail (Roche)) and electrophoresed through 4-12% SDS-PAGE followed by semi-dry transfer to PVDF membranes. The PVDF membranes were incubated with different antibodies including p21 (OP64-100UG, EMD Millipore (world wide web at emdmillipore.com/US/en/product/Antip21WAF1-(Ab-1)-Mouse-mAb-(EA10), EMD_BIO-OP64)), PUMA (12450S, Cell Signaling Technology, world wide web at cellsignal.com/products/primary-antibodies/puma-d30c10-rabbit-mab/12450), DR5 (3696S, Cell Signaling Technology, world wide web at cellsignal.com/products/primary-antibodies/dr5-antibody/3696?N=4294956287&Ntt=3696s&fromPage=plp& requestid=541668), p53(sc-126, Santa Cruz, world wide web at scbt.com/scbt/fr/product/p53-antibody-do-1), and RAN (610341, BD Transduction Laboratories, world wide web at bdbiosciences.com/us/reagents/research/antibodies-buffers/cell-biologyreagents/cell-biology-antibodies/purified-mouse-anti-ran-20ran/p/610341) in blocking buffer at 4° C. overnight. Bound antibody will be detected using IRDye secondary antibodies (LI-COR Biosciences,) in Odyssey blocking buffer for 1 hour then imaged using the ODYSSEY infrared imaging system.

[2] = system: p53 reporter (PG13-luc) in SW480 cells; assay: luciferase-based p53-reporter activity assay
Experimental: High-throughput screening was performed using a non-invasive bioluminescence imaging in human colorectal cancer cell lines that stably express a p53-regulated luciferase reporter. Cells were seeded in 96-well plates (Greiner Bio-One) at a density of 1×10^4 cells per well. p53 transcriptional activity was imaged using an IVIS imaging system for a period of 3-4 hours.
Cell-based screening of p53 transcriptional activity for small molecule CB002 was accomplished using noninvasive bioluminescence imaging in human colorectal cancer cell lines SW480, DLD-1, DLD-1 p73^−/−, HCT116, and HCT116 p53^−/−. These cell lines stably express a p53 reporter, PG13-luc. Cells were seeded in opaque 96-well culture at a density of 5×10^4 cells/well. The cells were treated with CB002 at ranging doses with DMSO controls. Bioluminescence in cells was imaged for p53 transcriptional activity at 2 hours and 24 hours using IVIS imaging system (Xenogen).
In order to identify small molecules that could restore the p53 signaling pathway, 50,000 small molecules from the Chembridge Library were screened using a firefly luciferase human p53 reporter assay system. SW480 colorectal cancer cells that stably express the human p53 reporter were treated with compounds at various concentrations from 0-100 μM for 2 and 24 hours. […] To further validate the effects of CB002, the screening was expanded by testing effects on p53-dependent reporter activity in DLD-1, wild-type HCT116, and p53-null colorectal cancer HCT116 cell lines. […] Referring to FIG. 1, representative images of luciferase-based p53-reporter activity assays are shown at 3 hours (Panel A). Quantification of the luciferase-based p53-reporter activity assays in three different cell lines incubated from 3-24 hours with CB002 are shown (Panels B-D). p53-reporter activity assays are shown at 2 hours for HCT116 p53-null cells (Panel E).

[3] = system: wild-type p53 and p53 targets in HCT116 cells; assay: Western blot of p53 and p53 targets; conditions: for wild-type p53 protein level: 24 hours, increasing dose
Experimental: as §1, §2

[4] = system: p53 targets in HCT116 p53-null cells; assay: Western blot of p53 targets
Experimental: as §1, §2

[5] = system: p53 pathway proteins in p73 knockdown DLD-1 cells; assay: Western blot of p53 targets; conditions: for p21 expression: 8 and 24 hours
Experimental: as §1, §2

[6] = system: SW480 cells; assay: apoptosis assay, sub-G1 analysis (propidium iodide, flow cytometry); conditions: for sub-G1 fraction: dose dependent, over untreated controls
Experimental: Apoptotic cells were quantified by sub-G1 analysis. Cells were seeded at a density of 2.5×10^5 to 5×10^5 in a 6-well plate and treated for 48-72 hours. After treatment, adherent cells were trypsinized and collected along with floating cells, washed with PBS and fixed in 70% ethanol. Cells were then incubated in a Phosphate-citric acid buffer (0.2 M Na2HPO4+0.1 M Citric Acid, pH 7.8) at room temperature for 5 minutes, spun down and resuspended for staining with 50 μg/mL propidium iodide (PI) in the presence of 250 μg/mL pancreatic ribonuclease (RNase A). Sub-G1 analyses were performed using an Epics Elite Epics flow cytometer (Coulter-Beckman).
Cells were seeded out at 1×10^6 cells/well on six well plates and treated with CB002 and Analog 11 at ranging doses with DMSO controls. Cells were harvested after 72 hours of treatment, all cells including floating cells were fixed with ethanol and stained with Propidium Iodide and then analyzed using Epics Elite flow cytometer to measure the DNA content of the stained cells.

[7] = 8 hours, 25 μmol/L and 50 μmol/L
[8] = 24 hours, 12 μmol/L of CB002 and 25 μmol/L of Analog 11

SMILES	DR5 protein level [1]	PUMA protein level [1, 7]	p21 protein level [1, 7]	PUMA protein level ([1]; 24 hours)	p21 protein level [1, 8]	p21 protein level ([3]; 8 and 24 hours)	wild-type p53 protein level [3]	p21 protein level ([4]; 8 hours)	p21 protein level ([4]; 24 hours)	p21 expression [5]	PUMA expression ([5]; 8 hours, over control)	PUMA expression ([5]; 24 hours)	sub-G1 fraction ([6]; 72 hours)	further results
Cn1c(=O)c2c(nc(Nc3ccccc3)n2C)n(C)c1=O [Analog 11, 8-anilino-1,3,7-trimethyl-3,7-dihydro-1Hpurine-2,6-dione]	no change of DR5	an increase at the 25 μmol/L but not the 50 μmol/L	minor increase in p21	an increase in PUMA	moderate increase in p21	increase moderately in a dose dependent fashion	moderate increase in wild-type p53	increase moderately	no consistent difference	absent	increased expression	reduction in PUMA	increased cells in sub-G1 fraction	p53 responsive bioluminescence ([2]; 0 to 20 μmol/L): increased p53 responsive bioluminescence in a dose dependent manner; PUMA expression ([3]; 8 and 24 hours): increase only at 24 hours; PUMA protein level [4, 7]: appeared to increase; PUMA protein level ([4]; 24 hours): slight decrease
Cn1c(=O)c2[nH]c(Nc3ccccc3)nc2n(C)c1=O [CB002, 8-anilino-1,3-dimethyl-3,7-dihydro-1H-purine-2,6-dione]	slightly increased	minor increase in PUMA	minor increase in p21	an increase in PUMA	moderate increase in p21	increase moderately in a dose dependent fashion	moderate increase in wild-type p53	increase moderately	no consistent difference	absent	increased expression	largely unchanged from control	increased cells in sub-G1 fraction	LC3B protein expression time course ([1]; 160 μM, 0-48 hours): initial increase of LC3B; p53 luciferase reporter activity ([2]; 0-100 μM, 2 and 24 hours): activating the luciferase reporter in a dose-dependent manner; wild-type p53 expression ([3]; 50 and 100 μM): unable to decrease the expression of wild-type p53; sub-G1 content ([6]; 96 μM, 48 hours, parental SW480 (NOXA experiment), DMSO 4.5%): 19%; sub-G1 population ([6]; 96 μM, 48 hours, DMSO control 8.7%): 32.6%; increase of cells in sub-G1 ([6]; 200 μM, 72 hours): 20%
